Results on ten compounds are retold here after patent US9537110B2, “Chalcogen-containing organic compound and use thereof” (JNC CORPORATION, priority 2012, dated 2017).

Series [1] can be described thus: Solubility evaluation in organic solvents. The class given is physicochemical. Conditions: room temperature; for solubility: organic solvent or mixture. How it is done: Solubility of the compound was evaluated. As a result, under room temperature, the compound was dissolved into chloroform at 381 g/L (20.5 wt. %), and into toluene at 137 g/L (13.6 wt. %). The compound is clearly found to show high solubility in any of solvent to allow use in an application process.
Solubility of the compound was evaluated. As a result, under room temperature, the compound was dissolved into chloroform at 43 g/L (2.8 wt. %), and into toluene at 23 g/L (2.6 wt. %). The compound is clearly found to show high solubility in any of solvent to allow use in an application process.

Series [2] in a line: Evaluation of chemical stability by UV-Vis spectrum. The series is classed as physicochemical. How it is done: Then, 0.6951 mg of the compound synthesized in Example 3 was weighed, and dissolved into degassed benzonitrile (25 mL) using a measuring flask in a glove box (solution concentration: 4.92×10^−5 M). A prepared solution thereof was put into a UV cell with a cover, and a UV-Vis spectrum (device used: Jasco V-570 Spectrometer, made by JASCO Corporation) was immediately measured. Subsequently, opening and closing of the cover were repeated several times under atmospheric air to bring the solution into contact with oxygen in air.
Moreover, a film having a thickness of 100 nanometers formed by performing vacuum deposition of the compound synthesized in Example 3 was allowed to stand for one week in atmospheric air. The results obtained by measuring UV-Vis spectra (device used: Jasco V-570 Spectrometer, made by JASCO Corporation) over time during the period are shown in FIG. 6.

Where [3] appears, read: chloroform, read-out: Solubility in chloroform.
Where [4] appears, read: toluene, read-out: Solubility in toluene.

In brackets after ≈: the same amount, converted by molar mass. Where two headings read alike, the source gives them in different places.

`CCCCCCCCCCc1ccc2cc3sc4cc5ccc(CCCCCCCCCC)cc5cc4c3cc2c1` [Example 2, 2,10-didecyldinaphtho[2,3-b:2′,3′-d]thiophene] yielded a melting point of 122 to 123 °C. In turn, `CCCCCCCCCCc1ccc2cc3oc4cc5ccc(CCCCCCCCCC)cc5cc4c3cc2c1` [Example 1, 2,10-didecyldinaphtho[2,3-b:2′,3′-d]furan] came in with a melting point of 175 to 176 °C. Turning to `c1ccc(-c2cc3oc4cc(-c5ccccc5)c5ccccc5c4c3c3ccccc23)cc1` [Example 20, 5,9-diphenyldinaphtho[2,1-b:1′,2′-d]furan], the solubility in series [1] (setting [3]) stood at 43 mg/mL (≈ 102 mM); in series [1] (setting [4]), 23 mg/mL (≈ 54.7 mM). In series [1] (chloroform), this compound came in with a Solubility in chloroform of 2.8 wt. %. This compound displayed a Solubility in toluene in series [1] (toluene) of 2.6 wt. %. As to `CCCCCCCCc1ccc2cc3c(cc2c1)sc1cc2cc(CCCCCCCC)ccc2cc13` [Example 8, 3,9-dioctyldinaphtho[2,3-b:2′,3′-d]thiophene], the melting point lay in the range of 193.7 to 194.8 °C. `CCCCCCCCCCc1ccc2cc3c(cc2c1)sc1cc2cc(CCCCCCCCCC)ccc2cc13` [Example 6, 3,9-didecyldinaphtho[2,3-b:2′,3′-d]thiophene]: the melting point lay within 182 to 183 °C. In turn, `CCCCCCCCCCc1ccc2cc3c(cc2c1)oc1cc2cc(CCCCCCCCCC)ccc2cc13` [Example 3, 3,9-didecyldinaphtho[2,3-b:2′,3′-d]furan] came in with a melting point of 216 to 217 °C. The “Change of UV-Vis spectrum of solution” value in series [2] (benzonitrile solution 4.92×10^−5 M, contact with oxygen in air, 3, 24 and 72 hours) is recorded as “no change of the spectrum was observed”. Besides, the “Chemical stability (conclusion)” value in series [2] (solution and film in air) is “chemically stable”. Besides, the “Change of UV-Vis spectrum of film” value in series [2] (vacuum-deposited film 100 nanometers, one week in atmospheric air) was “no change of the spectrum was observed”.

`c1ccc2cc3c(cc2c1)sc1cc2ccccc2cc13` [Comparative Example 1, dinaphtho[2,3-b:2′,3′-d]thiophene] gave a melting point of 282 to 283 °C. The compound `CCCCCCc1ccc2cc3c(cc2c1)oc1cc2cc(CCCCCC)ccc2cc13` [Example 5, 3,9-dihexyldinaphtho[2,3-b:2′,3′-d]furan] gave a melting point of 198.7 to 199.1 °C. On the same count and under the same terms, next, `CCCCCCc1ccc2cc3c(cc2c1)sc1cc2cc(CCCCCC)ccc2cc13` [Example 7, 3,9-dihexyldinaphtho[2,3-b:2′,3′-d]thiophene]: 202 to 202.4 °C. For the compound `CCCCCCCCc1cc2oc3cc(CCCCCCCC)c4ccccc4c3c2c2ccccc12` [Example 18, 5,9-dioctyldinaphtho[2,1-b:1′,2′-d]furan], the solubility in series [1] (setting [3]) was 381 mg/mL (≈ 773 mM); in series [1] (setting [4]), 137 mg/mL (≈ 278 mM). The compound further registered a Solubility in chloroform in series [1] (chloroform) of 20.5 wt. %. The compound further had a Solubility in toluene in series [1] (toluene) of 13.6 wt. %.

As a reminder, the melting point is the temperature of the solid-liquid transition. Broadly, the solubility is the dissolved amount per volume that the medium holds.
